Experimental data as given in US4009269A, “Antibiotic compositions and methods from micromonospora purpurea JI-20” (Schering Corporation, priority 1975, dated 1977).
Values after ≈ are worked out from the molar mass of the structure shown. Structures can show the parent of a compound that is named as a salt.

Assays:
[1] = system: Staphylococcus aureus ATCC 6538P; assay: Disc-plate assay (bioassay potency); format: cell-based; settings: for potency (assay against standard Antibiotic JI-20B base): vs standard Antibiotic JI-20B base, assigned potency 1000 mcg/mg
Protocol: Peak antibiotic production is determined by a disc-plate assay which uses Staphylococcus aureus ATCC 6538P as the test organism and which is performed substantially as described by Oden, et al. Antimicrobial Agents and Chemotherapy, 1963, pages 8-13.
The reference standard is Antibiotic JI-20B base having an assigned potency of 1000 mcg/mg. One (1) microgram of the standard in one (1) ml. of 0.1M phosphate buffer at pH 8.0 elicits a zonal response of 16.8± 1.5 mm. The standard Antibiotic JI-20B sulfate assays 730 mcg/mg against the standard base. Antibiotic JI-20A base and the corresponding sulfate assay 723 mcg/mg. and 527 mcg/mg., respectively, when assayed against the standard Antibiotic JI-20B base.

Acute toxicity = settings: in vivo, iv, I.V.
[2] = system: Pseudomonas aeruginosa 413; assay: In vivo mouse protection test; settings: ip, Pseudomonas aeruginosa 413 i.p. infection, dosed twice (0 and 4 h), survivors at 48 hours, read-out: PD50
Protocol: (§1) To determine the in vivo protective activity of the antibiotics against lethal infections of pathogenic bacterial origin in mice, mice were dosed twice with the individual antibiotic, with a solution or a suspension in an aqueous vehicle containing 0.5 % carboxy-methyl-cellulose (CMC), once immediately before an intraperitoneal injection of the infecting bacteria and once 4 hours after such injection. The number of survivors was determined 48 hours after infection and that data analyzed by standard probit procedures to determine PD50 values with 95% confidence limits. The following chart sets forth the protective activity of the antibiotics against a pathogenic bacterium.

[3] = system: Streptococcus pyogenes C2V; assay: In vivo mouse protection test; settings: ip, Streptococcus pyogenes C2V i.p. infection, dosed twice (0 and 4 h), survivors at 48 hours, read-out: PD50
Protocol: as §1

Escherichia coli 11775 [4] = assay: In vivo mouse protection test; settings: ip, Escherichia coli 11775 i.p. infection, dosed twice (0 and 4 h), survivors at 48 hours, read-out: PD50
Protocol: as §1

Escherichia coli 626 = assay: In vivo mouse protection test; settings: ip, Escherichia coli 626 i.p. infection, dosed twice (0 and 4 h), survivors at 48 hours, read-out: PD50
Protocol: as §1

[5] = system: Staphylococcus aureus Gray 979; assay: In vivo mouse protection test; settings: GRAY979, ip, Staphylococcus aureus Gray 979 i.p. infection, dosed twice (0 and 4 h), survivors at 48 hours, read-out: PD50
Protocol: as §1

Salmonella sp. S.C. = assay: In vivo mouse protection test; settings: 48 h, read-out: PD50
Protocol: as §1

[6] = system: Pseudomonas aeruginosa 1516-7; assay: In vivo mouse protection test; settings: 15167, ip, Pseudomonas aeruginosa 1516-7 i.p. infection, dosed twice (0 and 4 h), survivors at 48 hours, read-out: PD50
Protocol: as §1

Staphylococcus aureus = assay: In vivo mouse protection test; settings: ip, Staphylococcus aureus i.p. infection, dosed twice (0 and 4 h), survivors at 48 hours, read-out: PD50
Protocol: as §1

pKa = format: physicochemical
Proteus mirabilis 8019 = assay: In vitro MIC, Mueller-Hinton broth; format: cell-based; settings: 24 hours, expressed as free base, tested as sulfate
Protocol: (§2) In the table set forth below are test results after 24 hours incubation against representative gram positive and gram negative bacteria.

Klebsiella pneumoniae 18 = assay: In vitro MIC, Mueller-Hinton broth; format: cell-based; settings: 24 hours, expressed as free base, tested as sulfate
Protocol: as §2

Escherichia coli 11775 [7] = assay: In vitro MIC, Mueller-Hinton broth; format: cell-based; settings: 24 hours, expressed as free base, tested as sulfate
Protocol: as §2

Escherichia coli 12740 = assay: In vitro MIC, Mueller-Hinton broth; format: cell-based; settings: 24 hours, expressed as free base, tested as sulfate
Protocol: as §2

[8] = system: Klebsiella rhinoscleromatis 18804; assay: In vitro MIC, Mueller-Hinton broth; format: cell-based; settings: Klebsiella pneumoniae, 24 hours, expressed as free base, tested as sulfate
Protocol: as §2

[9] = system: Klebsiella pneumonia 13883; assay: In vitro MIC, Mueller-Hinton broth; format: cell-based; settings: Klebsiella pneumoniae, 24 hours, expressed as free base, tested as sulfate
Protocol: as §2

Staphylococcus aureus 70 = assay: In vitro MIC, Mueller-Hinton broth; format: cell-based; settings: 24 hours, expressed as free base, tested as sulfate
Protocol: as §2

[10] = system: Staphylococcus aureus 2059; assay: In vitro MIC, Mueller-Hinton broth; format: cell-based; settings: 24 hours, expressed as free base, tested as sulfate
Protocol: as §2

[11] = system: Pseudomonas aeruginosa 59; assay: In vitro MIC, Mueller-Hinton broth; format: cell-based; settings: 24 hours, expressed as free base, tested as sulfate
Protocol: as §2

[12] = system: Pseudomonas aeruginosa 60; assay: In vitro MIC, Mueller-Hinton broth; format: cell-based; settings: 24 hours, expressed as free base, tested as sulfate
Protocol: as §2

Staphylococcus aureus 45 = assay: In vitro MIC, Mueller-Hinton broth; format: cell-based; settings: 24 hours, expressed as free base, tested as sulfate
Protocol: as §2

Structure (SMILES) | potency (assay against standard Antibiotic JI-20B base) [1] | LD50 (Acute toxicity) | ED50 [2] | ED50 [3] | ED50 (Escherichia coli 11775 [4]) | ED50 (Escherichia coli 626) | ED50 [5] | ED50 (Salmonella sp. S.C.) | ED50 [6] | ED50 (Staphylococcus aureus) | pKa (pKa) | MIC (Proteus mirabilis 8019) | MIC (Klebsiella pneumoniae 18) | MIC (Escherichia coli 11775 [7]) | MIC (Escherichia coli 12740) | MIC [8] | MIC [9] | MIC (Staphylococcus aureus 70) | MIC [10] | MIC [11] | also measured
CNC1C(O)C(OC2C(N)CC(N)C(OC3OC(CN)C(O)C(O)C3N)C2O)OCC1(C)O (stereo not shown) [Antibiotic JI-20A sulfate] | 527 µg/mg |  |  |  |  |  |  |  |  |  |  |  |  |  |  |  |  |  |  |  | 
CNC1C(O)C(OC2C(N)CC(N)C(OC3OC(CN)C(O)C(O)C3N)C2O)OCC1(C)O (stereo not shown) [Antibiotic JI-20A] |  | 115 mg/kg | 50 mg/kg | 40 mg/kg | 4 mg/kg | 15 mg/kg | 3 mg/kg | 3 mg/kg | 50 mg/kg | 2.9 mg/kg | 8.1 | 0.8 µg/mL (≈ 1.66 µM) | 7.5 µg/mL (≈ 15.6 µM) | 0.3 µg/mL (≈ 0.623 µM) | 0.3 µg/mL (≈ 0.623 µM) | 0.05 µg/mL (≈ 0.104 µM) | 7.05 µg/mL (≈ 14.6 µM) | 3 µg/mL (≈ 6.23 µM) | 7.5 µg/mL (≈ 15.6 µM) | 3 µg/mL (≈ 6.23 µM) | potency (assay against standard Antibiotic JI-20B base) ([1]; listed as Antibiotic JI-20A base): 723 µg/mg; MIC [12]: 3 µg/mL (≈ 6.23 µM); MIC (Staphylococcus aureus 45): 0.3 µg/mL (≈ 0.623 µM)
CN[C@@H]1[C@@H](O)[C@@H](O[C@@H]2[C@@H](O)[C@H](O[C@H]3O[C@H](C(C)N)[C@@H](O)[C@H](O)[C@H]3N)[C@@H](N)C[C@H]2N)OC[C@]1(C)O (stereo partly shown) [Antibiotic JI-20B sulfate] | 730 µg/mg |  |  |  |  |  |  |  |  |  |  |  |  |  |  |  |  |  |  |  | 
CN[C@@H]1[C@@H](O)[C@@H](O[C@@H]2[C@@H](O)[C@H](O[C@H]3O[C@H](C(C)N)[C@@H](O)[C@H](O)[C@H]3N)[C@@H](N)C[C@H]2N)OC[C@]1(C)O (stereo partly shown) [Antibiotic JI-20B] |  | 115 mg/kg | 50 mg/kg | 40 mg/kg | 8 mg/kg | 15 mg/kg | 2.8 mg/kg | 4.5 mg/kg | 50 mg/kg | 14 mg/kg | 8.1 | 0.8 µg/mL (≈ 1.61 µM) | 17.5 µg/mL (≈ 35.3 µM) | 0.8 µg/mL (≈ 1.61 µM) | 0.3 µg/mL (≈ 0.605 µM) | 0.08 µg/mL (≈ 0.161 µM) | 0.08 µg/mL (≈ 0.161 µM) | 3 µg/mL (≈ 6.05 µM) | 7.5 µg/mL (≈ 15.1 µM) | 7.5 µg/mL (≈ 15.1 µM) | zone of inhibition at 1 µg/mL ([1]; Staphylococcus aureus, ATCC6538P, 1 microgram of standard in 1 ml 0.1M phosphate buffer pH 8.0, read-out: zonal response): 16.8 ± 1.5 mm; MIC [12]: 17.5 µg/mL (≈ 35.3 µM); MIC (Staphylococcus aureus 45): 0.3 µg/mL (≈ 0.605 µM)
